Assays:
Experiment in all cases: Test C greenhouse herbicide test, pre- and postemergence
Assay type in all cases: in vivo
[1] = tested on: blackgrass (Alopecurus myosuroides)
Text: (§1) Seeds of plant species selected from blackgrass (Alopecurus myosuroides), ryegrass, Italian (Italian ryegrass, Lolium multiflorum), wheat (winter wheat, Triticum aestivum), galium (catchweed bedstraw, Galium aparine), corn (Zea mays), large crabgrass, large (large crabgrass, Digitaria sanguinalis), foxtail, giant (giant foxtail, Setaria faberii), johnsongrass (Sorghum halepense), lambsquarters (Chenopodium album), morningglory (Ipomoea coccinea), nutsedge, yellow (yellow nutsedge, Cyperus esculentus), pigweed (Amaranthus retroflexus), ragweed (common ragweed, Ambrosia elatior), soybean (Glycine max), barnyardgrass (Echinochloa crus-galli), oilseed rape (Brassica napus), waterhemp (common waterhemp, Amaranthus rudis), and velvetleaf (Abutilon theophrasti) were planted into a blend of loam soil and sand and treated preemergence with test chemicals formulated in a non-phytotoxic solvent mixture which included a surfactant.
(§2) At the same time, plants selected from these crop and weed species and also chickweed (common chickweed, Stellaria media), kochia (Kochia scoparia), and oat, wild (wild oat, Avena fatua), were planted in pots containing Redi-Earth® planting medium (Scotts Company, 14111 Scottslawn Road, Marysville, Ohio 43041) comprising spaghnum peat moss, vermiculite, wetting agent and starter nutrients and treated with postemergence applications of test chemicals formulated in the same manner. Plants ranged in height from 2 to 18 cm (1- to 4-leaf stage) for postemergence treatments. Treated plants and controls were maintained in a greenhouse for 13 to 15 d, after which time all species were compared to controls and visually evaluated. Plant response ratings, summarized in Table C, are based on a scale of 0 to 100 where 0 is no effect and 100 is complete control. A dash (-) response means no test result.

[2] = tested on: velvetleaf (Abutilon theophrasti)
Text: as §1, §2

[3] = tested on: johnsongrass (Sorghum halepense)
Text: as §1, §2

[4] = tested on: oilseed rape (Brassica napus)
Text: as §1, §2

[5] = tested on: crabgrass, large (large crabgrass, Digitaria sanguinalis)
Text: as §1, §2

[6] = tested on: soybean (Glycine max)
Text: as §1, §2

[7] = tested on: foxtail, giant (giant foxtail, Setaria faberii)
Text: as §1, §2

[8] = tested on: morningglory (Ipomoea coccinea)
Text: as §1, §2

[9] = tested on: wheat (winter wheat, Triticum aestivum)
Text: as §1, §2

[10] = tested on: waterhemp (common waterhemp, Amaranthus rudis)
Text: as §1, §2

[11] = tested on: barnyardgrass (Echinochloa crus-galli)
Text: as §1, §2

[12] = tested on: ragweed (common ragweed, Ambrosia elatior)
Text: as §1, §2

[13] = tested on: lambsquarters (Chenopodium album)
Text: as §1, §2

[14] = tested on: galium (catchweed bedstraw, Galium aparine)
Text: as §1, §2

[15] = tested on: pigweed (Amaranthus retroflexus)
Text: as §1, §2

[16] = Postemergence, 31 g ai/ha, 0 to 100 scale (0 no effect, 100 complete control)
[17] = Postemergence, 125 g ai/ha, scale 0 to 100, 0 is no effect, 100 is complete control
[18] = Postemergence, 250 g ai/ha, scale 0 to 100, 0 no effect, 100 complete control, 13 to 15 d
[19] = postemergence, 62 g ai/ha, scale 0 to 100, 0 no effect, 100 complete control

CC(=O)Oc1c(C)nn(C)c(=O)c1-c1c(C)oc2ccc(C)cc12 [Compound 14, 5-(acetyloxy)-4-(2,5-dimethyl-3-benzofuranyl)-2,6-dimethyl-3(2H)-pyridazinone]
55: Plant response rating, Barnyardgrass [11, 17] | Galium plant response rating [14, 19] | Pigweed plant response rating [15, 16]
15: Ragweed plant response rating [12, 16]
10: Velvetleaf plant response rating [2, 16] | Waterhemp plant response rating [10, 19]
65: Morningglory plant response rating [8, 16]
30: Plant response rating, Crabgrass, Large [5, 17]
50: Plant response rating, Foxtail, Giant [7, 17] | Plant response rating, Foxtail, Giant [7, 18] | Plant response rating, Waterhemp [10, 17] | Plant response rating, Ragweed [12, 17] | Galium plant response rating [14, 16]
40: Plant response rating, Velvetleaf [2, 17] | Plant response rating, Velvetleaf [2, 18] | Plant response rating, Waterhemp [10, 18]
70: Plant response rating, Pigweed [15, 17] | Pigweed plant response rating [15, 19]
98: Plant response rating, Ragweed [12, 18]
85: Morningglory plant response rating [8, 19]
80: Lambsquarters plant response rating [13, 16] | Plant response rating, Lambsquarters [13, 17] | Lambsquarters plant response rating [13, 19] | Plant response rating, Galium [14, 17]
60: Plant response rating, Barnyardgrass [11, 18]
20: Plant response rating, Blackgrass [1, 18] | Velvetleaf plant response rating [2, 19] | Foxtail, Giant plant response rating [7, 16]
5: Plant response rating, Blackgrass [1, 17] | Plant response rating, Johnsongrass [3, 18] | Crabgrass, Large plant response rating [5, 16] | Crabgrass, Large plant response rating [5, 19] | Plant response rating, Soybean [6, 17] | Plant response rating, Soybean [6, 18] | Plant response rating, Wheat [9, 17] | Plant response rating, Wheat [9, 18] | Waterhemp plant response rating [10, 16] | Barnyardgrass plant response rating [11, 16] | Barnyardgrass plant response rating [11, 19]
0: Blackgrass plant response rating [1, 16] | Blackgrass plant response rating [1, 19] | Johnsongrass plant response rating [3, 16] | Plant response rating, Johnsongrass [3, 17] | Johnsongrass plant response rating [3, 19] | Oilseed Rape plant response rating [4, 16] | Plant response rating, Oilseed Rape [4, 17] | Plant response rating, Oilseed Rape [4, 18] | Oilseed Rape plant response rating [4, 19] | Soybean plant response rating [6, 16] | Soybean plant response rating [6, 19] | Wheat plant response rating [9, 16] | Wheat plant response rating [9, 19]
90: Ragweed plant response rating [12, 19] | Plant response rating, Lambsquarters [13, 18] | Plant response rating, Galium [14, 18] | Plant response rating, Pigweed [15, 18]
35: Plant response rating, Crabgrass, Large [5, 18]
100: Plant response rating, Morningglory [8, 17] | Plant response rating, Morningglory [8, 18]
45: Foxtail, Giant plant response rating [7, 19]

CC(=O)Oc1c(C)nn(C)c(=O)c1-c1c(C)oc2c(C)cc(C)cc12 [Compound 16, 5-(acetyloxy)-2,6-dimethyl-4-(2,5,7-trimethyl-3-benzofuranyl)-3(2H)-pyridazinone]
5: Plant response rating, Blackgrass [1, 17] | Blackgrass plant response rating [1, 19] | Velvetleaf plant response rating [2, 16] | Velvetleaf plant response rating [2, 19] | Plant response rating, Johnsongrass [3, 18] | Crabgrass, Large plant response rating [5, 16] | Waterhemp plant response rating [10, 16] | Plant response rating, Waterhemp [10, 17] | Plant response rating, Waterhemp [10, 18] | Waterhemp plant response rating [10, 19] | Barnyardgrass plant response rating [11, 16]
20: Plant response rating, Velvetleaf [2, 17] | Plant response rating, Crabgrass, Large [5, 17] | Crabgrass, Large plant response rating [5, 19] | Plant response rating, Lambsquarters [13, 18]
50: Morningglory plant response rating [8, 19] | Plant response rating, Pigweed [15, 18]
30: Plant response rating, Crabgrass, Large [5, 18] | Plant response rating, Ragweed [12, 18] | Plant response rating, Pigweed [15, 17] | Pigweed plant response rating [15, 19]
0: Blackgrass plant response rating [1, 16] | Johnsongrass plant response rating [3, 16] | Plant response rating, Johnsongrass [3, 17] | Johnsongrass plant response rating [3, 19] | Oilseed Rape plant response rating [4, 16] | Plant response rating, Oilseed Rape [4, 18] | Oilseed Rape plant response rating [4, 19] | Soybean plant response rating [6, 16] | Plant response rating, Soybean [6, 17] | Plant response rating, Soybean [6, 18] | Soybean plant response rating [6, 19] | Wheat plant response rating [9, 16] | Plant response rating, Wheat [9, 17] | Plant response rating, Wheat [9, 18] | Wheat plant response rating [9, 19] | Ragweed plant response rating [12, 16] | Plant response rating, Ragweed [12, 17] | Ragweed plant response rating [12, 19]
80: Plant response rating, Foxtail, Giant [7, 18] | Plant response rating, Galium [14, 18] | Galium plant response rating [14, 19]
10: Plant response rating, Oilseed Rape [4, 17] | Lambsquarters plant response rating [13, 16]
55: Foxtail, Giant plant response rating [7, 16]
70: Plant response rating, Foxtail, Giant [7, 17] | Plant response rating, Barnyardgrass [11, 17] | Barnyardgrass plant response rating [11, 19]
40: Plant response rating, Blackgrass [1, 18] | Plant response rating, Morningglory [8, 18] | Plant response rating, Lambsquarters [13, 17] | Pigweed plant response rating [15, 16]
85: Plant response rating, Galium [14, 17]
90: Plant response rating, Barnyardgrass [11, 18]
45: Morningglory plant response rating [8, 16]
60: Foxtail, Giant plant response rating [7, 19] | Plant response rating, Morningglory [8, 17] | Lambsquarters plant response rating [13, 19] | Galium plant response rating [14, 16]
35: Plant response rating, Velvetleaf [2, 18]

— patent US10597388B2, “Pyridazinone herbicides” (FMC CORPORATION, priority 2014, dated 2020)
